The assay concerns PxXyl43A. Description: p-nitrophenol release, absorbance at […] nm. Type of assay: biochemical, Paenibacillus xylaniclasticus. Particulars: pH 7.0, 50 mM potassium phosphate, 54 °C, 1.5 min, 1.8 to 9.0 mM pNPX.

Experimental findings from paper PMC9534826 (Journal of Applied Glycoscience, 2022) are described below.

For the molecule `O=[N+]([O-])c1ccc(O[C@@H]2OC[C@@H](O)[C@H](O)[C@H]2O)cc1` [pNPX], the Km came to 1200 µM.

Broadly, the Km is the concentration of substrate that gives half-maximal velocity.
